Measured values as given in publication PMC2831638 (Biochemistry, 2010).
Entries after “also recorded” stand apart in the source; their conditions may differ. Ends that are not written are not given here.

Tests used:
[1] = Peptide solubility, filtration assay with AAA; assay type: physicochemical; conditions: pH 7.4
[2] = tested on: Aβ42-induced toxicity in differentiated PC-12 cells; conditions: cell-viability screen; cited from earlier work

AEDVGSNKGA [Aβ(21–30)] gave a Max. solubility [1] of 129 ± 5 µM.

For IGLMVGGVVIA [Aβ(32–42)], the “toxicity of the peptide itself (in words)” value [2] is listed as “slight toxicity”.

In the case of KGAIIGLMVGGVVIA [Aβ(28–42)], the “toxicity of the peptide itself (in words)” value [2] is listed as “highly toxic itself; also recorded: higher toxicity than Aβ42 itself”.

LMVGGVV [Aβ(34–40)] showed a Max. solubility [1] of 169 ± 13 µM.

In the case of VVIA [Aβ(39–42)], the “inhibition of Aβ42-induced toxicity (in words)” value [2] is given as “strongest inhibitors”.
